This assay concerns Fam108b (Abhd17b) [Mus musculus]. Description: inhibition of membrane-bound mouse Fam108b, SAR follow-up, cell lysate, gel-based competitive ABPP, membrane form, set 2 (AID 588587). The settings on record: Fam108b-overexpressing membrane proteome, FP-Rh, at 20 µM, hits give high values.

The source made the active and inactive calls.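 How the source made its calls: active means inhibition above 60%; inactive means inhibition at or below 60%.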

The term inhibition denotes the change of the read-out against control, counted positive when it falls.

In the case of `CC(C)(C)c1nc2scc(-c3ccccc3)c2c(=O)o1`, the inhibition is 0% (inactive). Take `O=c1oc(-c2ccccc2F)nc2scc(-c3cccs3)c12`: the inhibition was 0% (inactive).

The values are drawn from PubChem BioAssay AID588587 (The Scripps Research Institute Molecular Screening Center, 2011).
